Broadly, the IC50 is the point on the concentration scale where inhibition reaches its midpoint.

The assay relates to P. falciparum 3D7 growth, pLDH absorbance. Kind of assay: P. falciparum 3D7 growth inhibition, dose response, strain 3D7 (AID 2305).

“And” between values parts separate entries of the source, which are not always exact repeats. Equal values may be shown once.

In the case of `O=C(c1cccc(-c2noc(C(F)(F)F)n2)c1)N1CCN(c2nsc3ccccc23)CC1`, the IC50 worked out at 140 nM.

`CN(C)c1ccc(-c2csc(C(=O)NCC3CCN(Cc4cccc(C(F)(F)F)c4)C3)c2)cc1` (stereo unspecified) yielded an IC50 of 840 nM.

As to `O=C(Nc1ccccc1)Nc1cccc(-c2nn3c(OCC4CCCCN4)cccc3c2-c2ccncc2)c1` (stereo unspecified), the IC50 stood at 860 nM.

For the compound `O=C(NC1CCC(CN2CCC(c3c[nH]c4ccccc34)CC2)CC1)c1csc(-c2ccc(C(F)(F)F)cc2Cl)n1` (stereo unspecified), the IC50 was found to be 830 nM.

Take `Clc1ccc(CNCC2CCN(CC3CCCCC3)CC2)cc1Cl`: the IC50 amounted to 1000 nM.

In the case of `O=C(NCCCCN1CCC(c2ccc3c(c2OCCN2CCCC2)CCCC3)CC1)c1ccc(-c2ccc(C(F)(F)F)cc2)cc1`, the IC50 was determined as 450 nM.

`CC(C)(C(=O)Nc1ccc(N2CCC3(CCCN(CC4CC4)C3)CC2)c(Cl)c1)c1cccc(C(F)(F)F)c1`: the IC50 is 2000 nM.

Regarding `CCN(CC)CCN(Cc1ccc(-c2ccc(C(F)(F)F)cc2)cc1)C(=O)Cn1c(CCc2cc(F)c(F)cc2F)nc(=O)c2ccccc21`, the IC50 is 720 nM.

For `CC(C)(C)c1cc(/C=C/C(=O)NC2CCC(CN3CCC(c4c[nH]c5ccccc45)CC3)CC2)cc(C(C)(C)C)c1O` (stereo unspecified), the IC50 is 720 nM and 700 nM.

The compound `COc1ccc2nccc(N3CCC(SCCNCc4cc5c(cn4)OCCO5)C3)c2n1` (stereo unspecified) showed an IC50 of 770 nM.

As to `Cc1cc(Nc2ccc(OCc3ccccc3Cl)cc2)c2cc(Cl)ccc2n1`, the IC50 came to 430 nM.

In turn, `c1ccc2oc(-c3cc4ccncc4cc3OC3CCNCC3)cc2c1` showed an IC50 of 1470 nM.

In turn, `COc1ccc2ncc(Cl)c(CCN3CCC(NCc4ccc5c(n4)NC(=O)CS5)CC3)c2c1` returned an IC50 of 590 nM.

For the compound `COc1ccc(-c2ccc(NC(=O)c3ccc(Cl)cc3)cc2)cc1CN1CCNCC1`, the IC50 is 130 nM.

For `COc1ccccc1C1CC(c2ccc(C)cc2)=NN1C(=O)c1ccccc1` (stereo unspecified), the IC50 was 890 nM.

The compound `O=S(=O)(c1ccc(OCc2ccc(Cl)cc2)cc1)c1cc2c(c(-c3ccc(F)cc3)c1)CCN(CC1CC1)CC2` showed an IC50 of 1120 nM.

Compound `CC[C@H]1CN2CC[C@@H]1C[C@H]2[C@H](O)c1cc(N2CCOCC2)nc2ccc(OC)cc12` showed an IC50 of 120 nM.

Compound `Nc1cccc(CNCc2cccc(-c3ccc(-c4nc5ccccc5[nH]4)s3)c2)c1` yielded an IC50 of 600 nM.

`CC(C)(C)c1ccc(CNC(=O)c2ccc(-c3nc4ccc(Cl)cc4[nH]3)cc2)cc1` displayed an IC50 of 820 nM.

In turn, `Cc1cc(NCCC(=O)NCCOc2ccccc2)nc(NCCc2ccc(F)cc2)n1` gave an IC50 of 940 nM.

Take `CCCCc1cc(NCc2ccncc2)nc(Nc2ccc(C)cc2)n1`: the IC50 came out at 790 nM.

In turn, `COc1ccc2nccc(N3CCC(CCNCc4ccc5c(n4)NC(=O)CO5)CC3)c2c1` displayed an IC50 of 700 nM.

As for `COc1ccc(-c2ccc3c(-c4cccc(S(C)(=O)=O)c4)cnc(N)c3c2)cc1`, the IC50 amounted to 1330 nM.

For `O=C(NC1CCN(CCN2CCc3ccccc3CC2)CC1)c1ccc(-c2ccc(C(F)(F)F)cc2)cc1`, the IC50 stood at 930 nM.

In turn, `CCOc1ccc(NC(=O)c2ccc(CN3CCCN(Cc4cccc(O)c4)CC3)cc2)cc1` displayed an IC50 of 1310 nM.

With `O=C(/C=C/c1ccc(Cl)c(Cl)c1)NCCCCCN1CCCC(CNS(=O)(=O)c2ccc(F)cc2)C1` (stereo unspecified), the IC50 came out at 1160 nM.

The compound `O=C(/C=C/c1ccc(Cl)c(Cl)c1)NC[C@@H]1CCC[C@H](CN2CCC(c3c[nH]c4ccccc34)CC2)C1` yielded an IC50 of 730 nM.

Regarding `Fc1ccc(-c2cncc(-c3ccc(F)cc3)n2)cc1`, the IC50 is 640 nM.

Compound `Cc1cc(=O)[nH]c2cc(Nc3ccnc(Nc4cccc(C(N)=O)c4)n3)ccc12` registered an IC50 of 1520 nM.

`COc1ccccc1OCCN(CC(O)COc1cccc2[nH]c3ccccc3c12)CC(O)COc1cccc2[nH]c3ccccc3c12` (stereo unspecified) displayed an IC50 of 640 nM.

With `CC(C)CC1c2[nH]c3ccccc3c2CCN1C(=O)CCc1ccccc1` (stereo unspecified), the IC50 worked out at 970 nM.

As to `Cc1ccc(CNC(=O)c2ccc(CN3CCCN(Cc4ccsc4)CC3)cc2)cc1`, the IC50 came out at 870 nM.

For the compound `CC(C)NCc1ccc(-c2ccc(NC(=O)c3cccc(Cl)c3)cc2)cc1`, the IC50 amounted to 960 nM.

Compound `Cc1c(C(=O)Nc2cc(Sc3ccc(F)cc3)cc([N+](=O)[O-])c2)sc2ncn(Cc3ccccc3F)c(=O)c12` yielded an IC50 of 800 nM.

For the compound `O=C(NCCCCN1CCC(c2ccc3c(c2OC(=O)c2ccc(NC(=O)c4ccc(Cl)cc4)cc2)CCCC3)CC1)c1ccc(NC(=O)c2ccc(Cl)cc2)cc1`, the concentration for half-maximal inhibition (IC50) turned out to be 200 nM.

For `COC(=O)c1cc(C(O)CNC(C)CCc2cccc(F)c2)ccc1O` (stereo unspecified), the IC50 stood at 1180 nM.

Regarding `CCCCCC(C)NC[C@@H](O)[C@H](Cc1ccccc1)NC(=O)c1cc(NCC)cc(N2CCCCS2(=O)=O)c1` (stereo partly specified), the concentration for half-maximal inhibition (IC50) worked out at 400 nM.

Compound `CCCc1cc(NC2CCN(C)CC2)nc(Nc2ccc(F)cc2)n1` displayed an IC50 of 800 nM.

In the case of `Cn1ncc2c3c(CCN4CCC(NCc5cc6c(cn5)OCC6)CC4)c(Cl)cnc3ccc21`, the IC50 was 880 nM.

`Cc1cc(OCC2CCCN(c3ncc(C(=O)NC4CC4)cc3Cl)C2)ccc1F` (stereo unspecified) yielded an IC50 of 1490 nM.

The compound `Oc1ccc(Cl)c2c1C(c1ccccc1)=NCC2` yielded an IC50 of 540 nM.

In turn, `Cc1[nH]c(C)c(-c2ccc(Oc3ccc(Cl)c(Cl)c3)cc2)c(=O)c1Br` gave an IC50 of 300 nM.

As to `Cc1ccc2nc(-c3cc(-c4cccc(CCN5CCOCC5)c4)cnc3N)[nH]c2c1`, the IC50 stood at 170 nM.

On to `CCOc1ccc2c(NN=Cc3c4ccccc4cc4ccccc34)cc(C)nc2c1`, for which the IC50 turned out to be 1070 nM.

For the compound `O=c1cc(NCc2ccccc2NCc2ccc(Cl)c(Cl)c2)[nH]c2ccccc12`, the IC50 is 840 nM.

In turn, `Nc1ncc(OC2CCCCC2)c(N)n1` returned an IC50 of 1070 nM.

On to `Cc1ccccc1OCC(=O)Nc1ccc(-c2nc3cc4ccccc4cc3[nH]2)cc1`, for which the half-maximal inhibitory concentration (IC50) amounted to 750 nM.

Turning to `C1=CN(Cc2ccccc2)C=CC1=C1C=Nc2ccccc21`, the IC50 was found to be 760 nM.

Turning to `O=C(/C=C/c1cccc(Cl)c1)N1CCC(C(O)CN2CCC3(CC2)CN(C(=O)/C=C/c2cccc(Cl)c2)c2ccccc23)CC1` (stereo unspecified), the IC50 amounted to 890 nM.

`Cc1ccccc1NC(=O)C1CSCN1C(=O)OCc1ccccc1` (stereo unspecified) gave an IC50 of 980 nM.

With `CC(C)CCNC(=O)c1cc(C(=O)c2cc(F)ccc2O)cn(CCC(C)C)c1=O`, the IC50 came to 750 nM.

On to `COc1cc(Cc2cnc(N)nc2N)ccc1OCc1ccc(NC(C)=O)cc1`, for which the IC50 came to 370 nM.

Consider `CN1CCN(c2cc3c(Nc4ccc5c(cnn5Cc5ccccc5)c4)ncnc3cn2)CC1`, for which the 50% inhibitory concentration (IC50) is 1130 nM.

`CC(C)(CNC(=O)C1CCN(CCOc2ccc(Cl)cc2)CC1)c1nc(-c2ccc(Cl)c(O)c2)c(-c2ccncc2)[nH]1` came in with an IC50 of 710 nM.

In turn, `C[C@H](Cc1ccc(OCCCOc2ccc(C[C@@H](C)NC[C@H](O)c3cccc(Cl)c3)cc2)cc1)NC[C@H](O)c1cccc(Cl)c1` showed an IC50 of 780 nM.

The compound `C[C@@H](N=C(Nc1ccc(C#N)cc1O)Nc1ccccc1Cl)c1ccc(Br)cc1` displayed an IC50 of 750 nM.

Turning to `Cc1cc(Nc2ccccc2)nc(Nc2ccccc2)n1`, the IC50 is 800 nM.

`FC(F)(F)c1ccc2nc(-c3cccc(-c4ccc(CNCCN5CCNCC5)cc4)c3)[nH]c2c1` had an IC50 of 860 nM.

For the compound `Cc1cc(NC(=O)Nc2ccc3ccn(C)c3c2)c2ccccc2n1`, the IC50 came to 210 nM.

The compound `Cc1cc(N2CCCC2)nc(Nc2ccc(NC(=O)C(C)Oc3ccccc3)cc2)n1` (stereo unspecified) had an IC50 of 1140 nM.

Compound `c1ccc2c(c1)CN(CC1CC1)CC1(CCN(Cc3c[nH]c4cnccc34)CC1)O2` had an IC50 of 900 nM.

The record behind these values is PubChem BioAssay AID2305 (GlaxoSmithKline (GSK), 2010).
